According to patent US20260184663A1, “INDENE COMPOUNDS, PHARMACEUTICAL COMPOSITIONS THEREOF, AND THEIR THERAPEUTIC APPLICATIONS” (NucMito Pharmaceuticals co. Ltd., priority 2022, published 2026):
Read-outs that look alike come from different tables or passages of the source.

Legend:
Assay type in all cases: cell-based
[1] = test system: MDA-MB-231 (breast cancer); experiment: Antiproliferative activity (CCK-8 cell viability), MDA-MB-231; conditions: Homo sapiens, 72 h; for inhibition at 3.3 µM: Compound concentration: 3.3 μM; for inhibition at 10 µM: Compound concentration: 10 μM; for inhibition at 30 µM: Compound concentration: 30 μM
How it was run: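 Growth inhibition of human MDA-MB-231 breast cancer cells was assessed with a Cell Counting Kit-8. Cells cultured in DMEM plus 10% FBS were seeded at 2,000-5,000 cells/well, treated after attachment, and kept 72 h at 37° C. CCK-8 solution (10 μL) was added for 4 h, and absorbance at 450 nm was compared with DMSO-treated controls.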

HepG2 (liver cancer) = experiment: Antiproliferative activity (CCK-8 cell viability), HepG2; conditions: Homo sapiens, 72 h, read-out: Antiproliferative activity in cancerous cells, HepG2 (inhibition of cell growth); for inhibition at 3.3 µM: Compound concentration: 3.3 μM; for inhibition at 10 µM: Compound concentration: 10 μM; for inhibition at 30 µM: Compound concentration: 30 μM
How it was run: (§1)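 Growth inhibition graded in bands from percent viability against DMSO vehicle, read as CCK-8 absorbance at 450 nm. Compound tested at 3.3, 10 or 30 μM for 72 h, 37 °C; media contained 10% FBS: DMEM for HepG2/SW480, MEM for HeLa, F-12K for A549.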

SW480 (colon cancer) = experiment: Antiproliferative activity (CCK-8 cell viability), SW480; conditions: Homo sapiens, 72 h, read-out: Antiproliferative activity in cancerous cells, SW480 (inhibition of cell growth); for inhibition at 3.3 µM: Compound concentration: 3.3 μM; for inhibition at 10 µM: Compound concentration: 10 μM; for inhibition at 30 µM: Compound concentration: 30 μM
How it was run: as §1

[2] = test system: B16F10 (malignant melanoma); experiment: Antiproliferative activity (CCK-8 cell viability), B16F10; conditions: Mus musculus, 72 h, read-out: Antiproliferative activity in cancerous cells, B16F10 (inhibition of cell growth); for inhibition at 3.3 µM: B16-F10, Compound concentration: 3.3 μM; for inhibition at 10 µM: B16-F10, Compound concentration: 10 μM; for inhibition at 30 µM: B16-F10, Compound concentration: 30 μM
How it was run: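 Cell growth inhibition was measured in B16F10 malignant melanoma cells with a Cell Counting Kit-8 viability assay. Cells were maintained in DMEM plus 10% fetal bovine serum, seeded at 2,000-5,000 cells/well in 96-well plates, and treated for 72 h at 37° C. Viability was expressed relative to DMSO-treated vehicle control wells.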

[3] = test system: A431 (epidermoid carcinoma); experiment: Antiproliferative activity (CCK-8 cell viability), A431; conditions: Homo sapiens, 72 h, read-out: Antiproliferative activity in cancerous cells, A431 (inhibition of cell growth); for inhibition at 3.3 µM: A-431, Compound concentration: 3.3 μM; for inhibition at 10 µM: A-431, Compound concentration: 10 μM; for inhibition at 30 µM: A-431, Compound concentration: 30 μM
How it was run: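 This growth inhibition assay used A431 cells maintained in Dulbecco's modified Eagle's medium plus 10% fetal bovine serum. Cells were seeded in 96-well plates, treated with compound for 72 h at 37° C., and then given 10 μL CCK-8 solution. After a further 4 h, absorbance was read at 450 nm.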

[4] = test system: A549 (lung adenocarcinoma); experiment: Antiproliferative activity (CCK-8 cell viability), A549; conditions: Homo sapiens, 72 h, read-out: Antiproliferative activity in cancerous cells, A549 (inhibition of cell growth); for inhibition at 3.3 µM: Compound concentration: 3.3 μM; for inhibition at 10 µM: Compound concentration: 10 μM; for inhibition at 30 µM: Compound concentration: 30 μM
How it was run: as §1

HeLa (cervical cancer) = experiment: Antiproliferative activity (CCK-8 cell viability), HeLa; conditions: Homo sapiens, 72 h, read-out: Antiproliferative activity in cancerous cells, HELA (inhibition of cell growth); for inhibition at 3.3 µM: Compound concentration: 3.3 μM; for inhibition at 10 µM: Compound concentration: 10 μM; for inhibition at 30 µM: Compound concentration: 30 μM
How it was run: as §1

[5] = read-out: Antiproliferative activity in cancerous cells, MDA-MB-231 (inhibition of cell growth)
[6] = read-out: Antiproliferative activity in cancerous cells, MDA-MB-231

CC1=C(CC(=O)O)c2cc(F)ccc2/C1=C\c1ccc(COCc2ccc(C(C)C)cc2)cc1 [B150, (Z)-2-(5-Fluoro-1-(4-(((4-isopropylbenzyl)oxy)methyl)benzylidene)-2-methyl-1H-inden-3-yl)acetic acid]
inhibition at 3.3 µM [1, 5]: 30 to 50%
inhibition at 10 µM [1, 5]: ≥ 50%
inhibition at 3.3 µM (HepG2 (liver cancer)): < 30%
inhibition at 10 µM (HepG2 (liver cancer)): ≥ 50%
inhibition at 3.3 µM (SW480 (colon cancer)): 30 to 50%
inhibition at 10 µM (SW480 (colon cancer)): ≥ 50%
inhibition at 3.3 µM [2]: < 30%
inhibition at 10 µM [2]: ≥ 50%
inhibition at 3.3 µM [3]: ≥ 50%
inhibition at 10 µM [3]: ≥ 50%
inhibition at 3.3 µM [4]: 30 to 50%
inhibition at 10 µM [4]: ≥ 50%
inhibition at 3.3 µM (HeLa (cervical cancer)): 30 to 50%
inhibition at 10 µM (HeLa (cervical cancer)): ≥ 50%

CC1=C(CC(=O)O)c2cc(Cl)ccc2/C1=C\c1cccc(Oc2ccc(Cl)cc2)c1 [C93, (Z)-2-(5-Chloro-1-(3-(4-chlorophenoxy)benzylidene)-2-methyl-1H-inden-3-yl)acetic acid]
inhibition at 3.3 µM [1, 5]: < 30%
inhibition at 10 µM [1, 5]: ≥ 50%
inhibition at 30 µM [1, 6]: < 30%
inhibition at 3.3 µM (HepG2 (liver cancer)): ≥ 50%
inhibition at 10 µM (HepG2 (liver cancer)): ≥ 50%
inhibition at 3.3 µM (SW480 (colon cancer)): < 30%
inhibition at 10 µM (SW480 (colon cancer)): 30 to 50%
inhibition at 3.3 µM [2]: ≥ 50%
inhibition at 10 µM [2]: ≥ 50%
inhibition at 3.3 µM [3]: ≥ 50%
inhibition at 10 µM [3]: ≥ 50%
inhibition at 3.3 µM [4]: < 30%
inhibition at 10 µM [4]: ≥ 50%
inhibition at 3.3 µM (HeLa (cervical cancer)): < 30%
inhibition at 10 µM (HeLa (cervical cancer)): ≥ 50%

COc1cc(Oc2cccc(/C=C3/C(C)=C(CC(=O)O)c4cc(F)ccc43)c2)ccc1Cl [C107, (Z)-2-(1-(3-(4-Chloro-3-methoxyphenoxy)benzylidene)-5-fluoro-2-methyl-1H-inden-3-yl)acetic acid]
inhibition at 3.3 µM [1, 5]: ≥ 50%
inhibition at 10 µM [1, 5]: ≥ 50%
inhibition at 3.3 µM (HepG2 (liver cancer)): < 30%
inhibition at 10 µM (HepG2 (liver cancer)): ≥ 50%
inhibition at 3.3 µM (SW480 (colon cancer)): 30 to 50%
inhibition at 10 µM (SW480 (colon cancer)): ≥ 50%
inhibition at 3.3 µM [2]: ≥ 50%
inhibition at 10 µM [2]: ≥ 50%
inhibition at 3.3 µM [3]: ≥ 50%
inhibition at 10 µM [3]: ≥ 50%
inhibition at 3.3 µM [4]: ≥ 50%
inhibition at 10 µM [4]: ≥ 50%
inhibition at 3.3 µM (HeLa (cervical cancer)): < 30%
inhibition at 10 µM (HeLa (cervical cancer)): ≥ 50%

CC1=C(CC(=O)O)c2cc(Cl)ccc2/C1=C/c1ccc(Oc2ccc(C(C)C)cc2)cc1 [E30, (E)-2-(5-Chloro-1-(4-(4-isopropylphenoxy)benzylidene)-2-methyl-1H-inden-3-yl)acetic acid]
inhibition at 3.3 µM [1, 5]: ≥ 50%
inhibition at 10 µM [1, 5]: ≥ 50%
inhibition at 30 µM [1, 5]: ≥ 50%
inhibition at 3.3 µM (HepG2 (liver cancer)): 30 to 50%
inhibition at 10 µM (HepG2 (liver cancer)): ≥ 50%
inhibition at 30 µM (HepG2 (liver cancer)): ≥ 50%
inhibition at 3.3 µM (SW480 (colon cancer)): ≥ 50%
inhibition at 10 µM (SW480 (colon cancer)): ≥ 50%
inhibition at 30 µM (SW480 (colon cancer)): ≥ 50%
inhibition at 3.3 µM [2]: ≥ 50%
inhibition at 10 µM [2]: ≥ 50%
inhibition at 30 µM [2]: ≥ 50%
inhibition at 3.3 µM [3]: < 30%
inhibition at 10 µM [3]: ≥ 50%
inhibition at 30 µM [3]: ≥ 50%
inhibition at 3.3 µM [4]: < 30%
inhibition at 10 µM [4]: ≥ 50%
inhibition at 30 µM [4]: ≥ 50%
inhibition at 3.3 µM (HeLa (cervical cancer)): ≥ 50%
inhibition at 10 µM (HeLa (cervical cancer)): ≥ 50%
inhibition at 30 µM (HeLa (cervical cancer)): ≥ 50%

CC1=C(CC(=O)O)c2c(F)ccc(F)c2/C1=C\c1ccc(C(C)C)cc1 [D4, (Z)-2-(4,7-Difluoro-1-(4-isopropylbenzylidene)-2-methyl-1H-inden-3-yl)acetic acid]
inhibition at 3.3 µM [1, 5]: 30 to 50%
inhibition at 10 µM [1, 5]: 30 to 50%
inhibition at 30 µM [1, 5]: ≥ 50%
inhibition at 3.3 µM (HepG2 (liver cancer)): < 30%
inhibition at 10 µM (HepG2 (liver cancer)): < 30%
inhibition at 30 µM (HepG2 (liver cancer)): ≥ 50%
inhibition at 3.3 µM (SW480 (colon cancer)): < 30%
inhibition at 10 µM (SW480 (colon cancer)): < 30%
inhibition at 30 µM (SW480 (colon cancer)): ≥ 50%
inhibition at 3.3 µM [2]: 30 to 50%
inhibition at 10 µM [2]: ≥ 50%
inhibition at 30 µM [2]: ≥ 50%
inhibition at 3.3 µM [3]: < 30%
inhibition at 10 µM [3]: < 30%
inhibition at 30 µM [3]: ≥ 50%
inhibition at 3.3 µM [4]: < 30%
inhibition at 10 µM [4]: 30 to 50%
inhibition at 30 µM [4]: ≥ 50%
inhibition at 3.3 µM (HeLa (cervical cancer)): ≥ 50%
inhibition at 10 µM (HeLa (cervical cancer)): ≥ 50%
inhibition at 30 µM (HeLa (cervical cancer)): ≥ 50%

CC1=C(CC(=O)O)c2cc(F)ccc2/C1=C\c1ccc(COc2ccc(F)cc2)cc1Br [B74, (Z)-2-(1-(2-Bromo-4-((4-fluorophenoxy)methyl)benzylidene)-5-fluoro-2-methyl-1H-inden-3-yl)acetic acid]
inhibition at 3.3 µM [1, 5]: < 30%
inhibition at 10 µM [1, 5]: 30 to 50%
inhibition at 3.3 µM (HepG2 (liver cancer)): ≥ 50%
inhibition at 10 µM (HepG2 (liver cancer)): ≥ 50%
inhibition at 3.3 µM (SW480 (colon cancer)): < 30%
inhibition at 10 µM (SW480 (colon cancer)): < 30%
inhibition at 3.3 µM [2]: 30 to 50%
inhibition at 10 µM [2]: ≥ 50%
inhibition at 3.3 µM [3]: < 30%
inhibition at 10 µM [3]: 30 to 50%
inhibition at 3.3 µM [4]: 30 to 50%
inhibition at 10 µM [4]: 30 to 50%
inhibition at 3.3 µM (HeLa (cervical cancer)): < 30%
inhibition at 10 µM (HeLa (cervical cancer)): ≥ 50%

CC1=C(CC(=O)O)c2cc(F)ccc2/C1=C\c1cccc(Oc2ccc(C)cc2)c1 [C96, (Z)-2-(5-Fluoro-2-methyl-1-(3-(p-tolyloxy)benzylidene)-1H-inden-3-yl)acetic acid]
inhibition at 3.3 µM [1, 5]: < 30%
inhibition at 10 µM [1, 5]: < 30%
inhibition at 3.3 µM (HepG2 (liver cancer)): 30 to 50%
inhibition at 10 µM (HepG2 (liver cancer)): ≥ 50%
inhibition at 3.3 µM (SW480 (colon cancer)): < 30%
inhibition at 10 µM (SW480 (colon cancer)): < 30%
inhibition at 3.3 µM [2]: 30 to 50%
inhibition at 10 µM [2]: 30 to 50%
inhibition at 3.3 µM [3]: ≥ 50%
inhibition at 10 µM [3]: ≥ 50%
inhibition at 3.3 µM [4]: < 30%
inhibition at 10 µM [4]: ≥ 50%
inhibition at 3.3 µM (HeLa (cervical cancer)): 30 to 50%
inhibition at 10 µM (HeLa (cervical cancer)): ≥ 50%

CC1=C(CC(=O)O)c2cc(F)ccc2/C1=C\c1ccc(Sc2ccc(F)cc2)cc1 [C47, (Z)-2-(5-Fluoro-1-(4-((4-fluorophenyl)thio)benzylidene)-2-methyl-1H-inden-3-yl)acetic acid]
inhibition at 3.3 µM [1, 5]: < 30%
inhibition at 10 µM [1, 5]: < 30%
inhibition at 30 µM [1, 6]: < 30%
inhibition at 3.3 µM (HepG2 (liver cancer)): < 30%
inhibition at 10 µM (HepG2 (liver cancer)): ≥ 50%
inhibition at 3.3 µM (SW480 (colon cancer)): < 30%
inhibition at 10 µM (SW480 (colon cancer)): ≥ 50%
inhibition at 3.3 µM [2]: < 30%
inhibition at 10 µM [2]: ≥ 50%
inhibition at 3.3 µM [3]: 30 to 50%
inhibition at 10 µM [3]: ≥ 50%
inhibition at 3.3 µM [4]: < 30%
inhibition at 10 µM [4]: ≥ 50%
inhibition at 3.3 µM (HeLa (cervical cancer)): < 30%
inhibition at 10 µM (HeLa (cervical cancer)): ≥ 50%

CCc1ccc2c(c1)C(CC(=O)O)=C(C)/C2=C/c1ccc(COCc2ccc(Cl)cc2)cc1 [B122, (Z)-2-(1-(4-(((4-Chlorobenzyl)oxy)methyl)benzylidene)-5-ethyl-2-methyl-1H-inden-3-yl)acetic acid]
inhibition at 3.3 µM [1, 5]: < 30%
inhibition at 10 µM [1, 5]: ≥ 50%
inhibition at 3.3 µM (HepG2 (liver cancer)): ≥ 50%
inhibition at 10 µM (HepG2 (liver cancer)): ≥ 50%
inhibition at 3.3 µM (SW480 (colon cancer)): 30 to 50%
inhibition at 10 µM (SW480 (colon cancer)): ≥ 50%
inhibition at 3.3 µM [2]: 30 to 50%
inhibition at 10 µM [2]: ≥ 50%
inhibition at 3.3 µM [3]: ≥ 50%
inhibition at 10 µM [3]: ≥ 50%
inhibition at 3.3 µM [4]: 30 to 50%
inhibition at 10 µM [4]: ≥ 50%
inhibition at 3.3 µM (HeLa (cervical cancer)): < 30%
inhibition at 10 µM (HeLa (cervical cancer)): ≥ 50%
